Laboratory results: ChEMBL document CHEMBL1128209, “Cyclooxygenase-2 inhibitors. Synthesis and pharmacological activities of 5-methanesulfonamido-1-indanone derivatives” (J Med Chem, 1995)

Assays:
[1] = biological target: Prostaglandin G/H synthase 1 (Homo sapiens, UniProt P23219); experiment: Inhibition of Prostaglandin G/H synthase 1 in human U937 cells; assay type: cell-based, U-937
Rattus norvegicus [2] = experiment: In vivo antiinflammatory activity by the Carrageenan-induced rat paw edema assay.; assay type: functional
[3] = biological target: T1, Prostaglandin G/H synthase 2 (Homo sapiens, UniProt P35354); experiment: In vitro inhibition of prostaglandin G/H synthase 2 expressed in human osteosarcoma 143 cells; assay type: cell-based
T1 sequence (P35354 whole entry): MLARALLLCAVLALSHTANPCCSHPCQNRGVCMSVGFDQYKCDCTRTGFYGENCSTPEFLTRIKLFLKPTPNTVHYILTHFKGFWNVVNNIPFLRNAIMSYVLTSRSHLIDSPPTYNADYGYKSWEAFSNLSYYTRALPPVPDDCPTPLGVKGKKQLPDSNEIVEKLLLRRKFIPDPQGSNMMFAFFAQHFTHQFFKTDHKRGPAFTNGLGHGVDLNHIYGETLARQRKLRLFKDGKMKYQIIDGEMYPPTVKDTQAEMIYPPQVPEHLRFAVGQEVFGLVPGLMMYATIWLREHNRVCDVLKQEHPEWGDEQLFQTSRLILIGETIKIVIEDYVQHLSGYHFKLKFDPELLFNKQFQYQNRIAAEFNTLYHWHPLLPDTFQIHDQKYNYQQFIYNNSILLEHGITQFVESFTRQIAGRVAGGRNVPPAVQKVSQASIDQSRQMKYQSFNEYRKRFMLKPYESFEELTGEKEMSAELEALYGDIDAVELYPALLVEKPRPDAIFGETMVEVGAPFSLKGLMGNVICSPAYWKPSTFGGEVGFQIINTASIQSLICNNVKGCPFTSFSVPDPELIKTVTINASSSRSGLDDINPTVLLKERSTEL

[4] = biological target: T2, Prostaglandin G/H synthase 2 (Homo sapiens) (UniProt P35354); experiment: Ability to inhibit the Prostaglandin G/H synthase 2 expressed in human osteosarcoma 143 cells, in vitro; assay type: cell-based; settings: concentration not given here
T2 sequence (whole entry): T1 sequence (P35354 whole entry)

[5] = Plasma clearance rate was determined for the compound in rats; assay type: ADME, organism-based; settings: rat
[6] = Plasma clearance rate was determined for the compound in squirrel monkeys; assay type: ADME, organism-based; settings: saimiri
[7] = Bioavailability in rat; assay type: ADME, organism-based; settings: in vivo
[8] = Bioavailability in squirrel monkey; assay type: ADME, organism-based, Saimiri sciureus; settings: in vivo
[9] = Plasma terminal half life in squirrel monkeys at a dose of 1 mg/kg administered intravenously; assay type: ADME, organism-based; set-up: dose 1 mg/kg, route intravenous; settings: saimiri, iv
Rattus norvegicus [10] = experiment: In vivo antiinflammatory activity by the Carrageenan-induced rat paw edema assay; assay type: functional
Rattus norvegicus [11] = experiment: In vivo antipyretic activity by endotoxin-induced rat pyresis assay.; assay type: functional
Rattus norvegicus [12] = experiment: In vivo antiinflammatory activity by the Carrageenan-induced rat paw hyperalgesia assay.; assay type: functional
[13] = Plasma Clearance rate was determined for the compound in rats; assay type: ADME, organism-based; settings: rat
[14] = Plasma Clearance rate was determined for the compound in squirrel monkeys; assay type: ADME, organism-based; settings: saimiri

Chain of Prostaglandin G/H synthase 1 (P23219 whole entry): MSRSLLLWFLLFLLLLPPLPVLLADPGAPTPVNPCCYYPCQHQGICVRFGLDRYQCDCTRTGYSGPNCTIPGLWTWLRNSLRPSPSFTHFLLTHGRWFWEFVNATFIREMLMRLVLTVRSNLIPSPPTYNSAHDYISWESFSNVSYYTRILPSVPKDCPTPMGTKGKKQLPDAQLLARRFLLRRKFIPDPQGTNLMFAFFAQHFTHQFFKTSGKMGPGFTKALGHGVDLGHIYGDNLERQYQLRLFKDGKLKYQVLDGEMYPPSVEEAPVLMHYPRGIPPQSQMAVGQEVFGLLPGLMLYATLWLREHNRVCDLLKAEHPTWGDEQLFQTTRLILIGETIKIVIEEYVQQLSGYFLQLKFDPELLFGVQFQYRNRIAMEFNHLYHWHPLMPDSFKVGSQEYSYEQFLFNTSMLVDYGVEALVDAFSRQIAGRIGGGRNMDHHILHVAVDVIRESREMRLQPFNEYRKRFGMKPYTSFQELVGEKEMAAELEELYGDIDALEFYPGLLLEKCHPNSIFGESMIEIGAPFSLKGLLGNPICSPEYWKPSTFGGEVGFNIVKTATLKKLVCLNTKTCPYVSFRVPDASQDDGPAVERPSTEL

Compound | IC50 [1] | IC50 [3] | other results
Cc1ccc(Sc2cc3c(cc2NS(C)(=O)=O)CCC3=O)cc1 | > 1 µM | – | ED30 (Rattus norvegicus [2]): 10 MPK
CS(=O)(=O)Nc1cc2c(cc1OC1CCCCC1)C(=O)CC2 | > 1 µM | 0.05 µM | ED30 (Rattus norvegicus [2]): 10 MPK
CS(=O)(=O)Nc1cc2c(cc1Sc1cccnc1)C(=O)CC2 | – | – | inhibition [4]: 30%
CS(=O)(=O)Nc1cc2c(cc1Sc1ccc(Br)cc1)C(=O)CC2 | > 10 µM | 0.01 µM | ED30 (Rattus norvegicus [2]): 3 MPK
Cc1cccc(Sc2cc3c(cc2NS(C)(=O)=O)CCC3=O)c1 | – | > 10 µM | –
O=C1CCc2cc(NC(=O)C(F)(F)F)c(Sc3ccc(F)cc3F)cc21 | – | > 10 µM | –
CS(=O)(=O)Nc1cc2c(cc1Sc1cscn1)C(=O)CC2 | – | > 10 µM | –
CS(=O)(=O)Nc1cc2c(cc1S(=O)(=O)c1ccc(F)cc1F)C(=O)CC2 | – | > 10 µM | –
CS(=O)(=O)Nc1cc2c(cc1Sc1ccc(F)cc1F)C(=O)CC2 | > 50 µM | – | clearance [5]: 0.5 mL/min; clearance [6]: 0.5 mL/min; bioavailability [7]: 90%; bioavailability [8]: 145%; half-life [9]: 6.9 h; ED30 (Rattus norvegicus [10]): 0.21 MPK
COc1ccc2c(c1)c(CC(=O)O)c(C)n2C(=O)c1ccc(Cl)cc1 [INDOMETHACIN] | – | – | ED50 (Rattus norvegicus [11]): 7 mg/kg; ED50 (Rattus norvegicus [2]): 2 mg/kg; ED50 (Rattus norvegicus [12]): 1.47 mg/kg
CS(=O)(=O)Nc1cc2c(cc1Sc1ccsc1)C(=O)CC2 | – | – | inhibition [4]: 46%
CS(=O)(=O)Nc1cc2c(cc1SC1CCCCC1)C(=O)CC2 | > 50 µM | 0.05 µM | ED30 (Rattus norvegicus [2]): >3 MPK
CS(=O)(=O)Nc1cc2c(cc1Sc1cccc(F)c1)C(=O)CC2 | – | > 10 µM | –
CC(C)c1ccc(Sc2cc3c(cc2NS(C)(=O)=O)CCC3=O)cc1 | – | > 10 µM | –
CS(=O)(=O)Nc1cc2c(cc1Sc1ccc(C(=O)O)cc1)C(=O)CC2 | – | > 10 µM | –
CS(=O)(=O)Nc1cc2c(cc1Sc1cncs1)C(=O)CC2 | – | > 10 µM | –
CCS(=O)(=O)Nc1cc2c(cc1Sc1ccc(F)cc1F)C(=O)CC2 | > 10 µM | > 10 µM | –
CC(C)(C)c1ccc(Sc2cc3c(cc2NS(C)(=O)=O)CCC3=O)cc1 | – | > 10 µM | –
Cc1ccccc1Sc1cc2c(cc1NS(C)(=O)=O)CCC2=O | > 50 µM | – | –
CS(=O)(=O)Nc1cc2c(cc1Oc1ccc(F)cc1F)C(=O)CC2 [FLOSULIDE] | > 50 µM | – | clearance [13]: 1.2 mL/min; clearance [14]: 1.2 mL/min; bioavailability [7]: 92%; bioavailability [8]: 63%; half-life [9]: 4.9 h; ED30 (Rattus norvegicus [2]): 0.6 MPK
CS(=O)(=O)Nc1cc2c(cc1[S+]([O-])c1ccc(F)cc1F)C(=O)CC2 (stereo unspecified) | – | – | inhibition [4]: 27%
CS(=O)(=O)Nc1cc2c(cc1OC1CCOCC1)C(=O)CC2 | – | > 10 µM | –

The next lines start with results.

IC50 [1] | IC50 [3] | Compound | other results
< 1 µM | > 0.2 µM | CS(=O)(=O)Nc1cc2c(cc1Cc1ccc(F)cc1F)C(=O)CC2 | –
– | 1 µM | CS(=O)(=O)Nc1cc2c(cc1Sc1cccs1)C(=O)CC2 | –
– | > 10 µM | COc1ccccc1Sc1cc2c(cc1NS(C)(=O)=O)CCC2=O | –
– | 0.1 µM | CCc1ccc(Sc2cc3c(cc2NS(C)(=O)=O)CCC3=O)cc1 | –
– | 0.1 µM | CSc1ccc(Oc2cc3c(cc2NS(C)(=O)=O)CCC3=O)cc1 | –
– | > 10 µM | CC(=O)Nc1cc2c(cc1Sc1ccc(F)cc1F)C(=O)CC2 | –
– | > 10 µM | CS(=O)(=O)Nc1cc2c(cc1Oc1ccc(S(C)(=O)=O)cc1)C(=O)CC2 | –
> 10 µM | > 1 µM | CS(=O)(=O)Nc1cc2c(cc1OC1CCCC1)C(=O)CC2 | –
> 10 µM | 0.1 µM | CS(=O)(=O)Nc1cc2c(cc1Sc1nccs1)C(=O)CC2 | ED30 (Rattus norvegicus [2]): 0.85 MPK
40 µM | 0.01 µM | CS(=O)(=O)Nc1cc2c(cc1Sc1ccc(Cl)cc1Cl)C(=O)CC2 | ED30 (Rattus norvegicus [2]): 0.1 MPK
– | 0.04 µM | O=C1CCc2cc(NS(=O)(=O)C(F)(F)F)c(Sc3ccc(F)cc3F)cc21 | –
– | 1 µM | CS(=O)(=O)Nc1cc2c(cc1Nc1ccc(F)cc1F)C(=O)CC2 | –
> 50 µM | 1 µM | CS(=O)(=O)Nc1cc2c(cc1Sc1ccc(F)cc1)C(=O)CC2 | –
> 50 µM | 0.1 µM | CS(=O)(=O)Nc1cc2c(cc1Sc1c(F)cccc1F)C(=O)CC2 | –
> 50 µM | 0.1 µM | CS(=O)(=O)Nc1cc2c(cc1Sc1ccccc1F)C(=O)CC2 | –
– | 0.1 µM | COc1ccc(Sc2cc3c(cc2NS(C)(=O)=O)CCC3=O)cc1 | –
– | 0.1 µM | CS(=O)(=O)Nc1cc2c(cc1Sc1ccccn1)C(=O)CC2 | –
– | 1 µM | CS(=O)(=O)Nc1cc2c(cc1Sc1ccncc1)C(=O)CC2 | –
